What was measured:
human NK-1 receptor = molecular target: T1, human NK-1 receptor (Homo sapiens, UniProt P25103); assay: NK-1 receptor binding (125I-Tyr8-substance P, intact CHO cells); details: CHO cells expressing the human NK-1 receptor
T1 construct: expressed in transfected cells; host or cells: CHO (Chinese hamster ovary) cells, intact
Procedure: NK-1 receptor binding assays are performed in intact Chinese hamster ovary (CHO) cells expressing the human NK-1 receptor using a modification of the assay conditions described by Cascieri et al, J. Pharmacol. Exp. Ther., 1992, 42, 458. Typically, the receptor is expressed at a level of 3×10^5 receptors per cell. Cells are grown in monolayer culture, detached from the plate with enzyme-free dissociation solution (Speciality Media Inc.), and washed prior to use in the assay. ^125I-Tyr^8-substance P (0.1 nM, 2000 Ci/mmol; New England Nuclear) is incubated in the presence or absence of test compounds (dissolved in 5 μl dimethylsulphoxide, DMSO) with 5×10^4 CHO cells. Ligand binding is performed in 0.25 ml of 50 mM Tris-HCl, pH 7.5, containing 5 mM MnCl2, 150 mM NaCl, 0.02% bovine serum albumin (Sigma), 50 μg/ml chymostatin (Peninsula), 0.1 nM phenylmethylsulphonyl fluoride, 2 μg/ml pepstatin, 2 μg/ml leupeptin and 2.8 μg/ml furoyl saccharine. The incubation proceeds at room temperature until equilibrium is achieved (>40 minutes) and the receptor-ligand complex is harvested by filtration over GF/C filters pre-soaked in 0.1% polyethylenimine using a Tomtek 96-well harvester. Non-specific binding is determined using excess substance P (1 μM and represents <10% of total binding.

[1] = tested on: foot tapping in gerbils induced by central injection of an NK1 agonist; assay: Gerbil foot-tapping induced by central infusion of NK-1 receptor agonist GR73632; assay type: in vivo, Mongolian gerbils; details: i.v.
Text: ASSAY 2: Gerbil Foot-tapping
CNS-penetrant NK-1 receptor antagonists for use in the present invention can be identified by their ability to inhibit foot tapping in gerbils induced by anxiogenic agents (such as pentagastrin) or central infusion of NK-1 receptor agonists such as GR73632, or caused by aversive stimulation such as foot shock or single housing, based on the method of Rupniak & Williams, Eur. J. Pharmacol., 1994, 265, 179.
Male or female Mongolian gerbils (35-70 g) are anaesthetised by inhalation of an isoflurane/oxygen mixture to permit exposure of the jugular vein in order to permit administration of test compounds or vehicle in an injection volume of 5 ml/kg i.v. Alternatively, test compounds may be administered orally or by subcutaneous or intraperitoneal routes. A skin incision is then made in the midline of the scalp to expose the skull. […]

[2] = tested on: separation-induced vocalisations by guinea-pig pups; assay: Separation-induced vocalisation in guinea-pig pups; assay type: in vivo; details: p.o.
Procedure: ASSAY 4: Separation-induced Vocalisation
On test days each pup receives an oral dose or an s.c. or i.p. injection of test compound or vehicle and is then immediately returned to the home cage with its mother and siblings for 30 to 60 minutes (or for up to 4 hours following an oral dose, dependent upon the oral pharmacokinetics of the test compound) before social isolation for 15 minutes as described above. […] Between 6 and 8 animals receive each test compound at each dose tested.

T1 sequence (P25103 whole entry): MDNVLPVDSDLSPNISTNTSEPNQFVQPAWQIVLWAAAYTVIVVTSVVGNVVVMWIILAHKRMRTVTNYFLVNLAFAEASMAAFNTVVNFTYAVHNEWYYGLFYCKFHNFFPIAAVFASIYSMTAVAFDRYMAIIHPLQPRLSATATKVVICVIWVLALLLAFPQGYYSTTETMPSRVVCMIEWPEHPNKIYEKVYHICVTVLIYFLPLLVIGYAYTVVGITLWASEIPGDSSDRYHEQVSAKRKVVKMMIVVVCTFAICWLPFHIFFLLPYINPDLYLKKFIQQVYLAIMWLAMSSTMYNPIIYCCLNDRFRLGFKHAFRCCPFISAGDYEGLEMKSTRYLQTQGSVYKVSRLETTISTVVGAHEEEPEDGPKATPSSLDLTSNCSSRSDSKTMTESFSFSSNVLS

| melting point | IC50 (human NK-1 receptor) | SMILES | gerbil foot-tapping (5 mins.): ID50 ([1]; 5 mins.) | gerbil foot-tapping (24 hrs.): ID60 ([1]; 24 hrs. prior to agonist challenge) | guinea-pig vocalisation (4 hr. pre-treatment): ID50 [2] |
| --- | --- | --- | --- | --- | --- |
| 214 to 216 °C |  | Cl.FC(F)(F)Oc1ccc(OC2CC2)c([C@H]2CO[C@]3(CCCN[C@H]3c3ccccc3)C2)c1 |  |  |  |
|  | 0.12 nM | OC[C@@H](O[C@H]1OCCN(Cc2nc[nH]n2)[C@H]1c1ccc(F)cc1)c1cc(C(F)(F)F)cc(C(F)(F)F)c1 [2-(R)-(1-(S)-(3,5-bis(trifluoromethyl)phenyl)-2-hydroxyethoxy)-3-(S)-(4-fluorophenyl)-4-(1,2,4-triazol-3-yl)methylmorpholine] | ID50 = 0.38 mg/kg i.v. | ID60 = 2.2 mg/kg i.v. | ID50 = 0.91 mg/kg p.o. |

Source: US6613765B1, “Use of NK-1 receptor antagonists for treating major depressive disorders” (Merck Sharp & Dohme Limited, priority 1996, dated 2003)
